Measurements as given in ChEMBL document CHEMBL1201862, “PubChem BioAssay data set” (2004).
Activity calls are given as the source filed them. Cut-off read from the data, not from the text of the source, for most assays here: actives have a measured EC50 and inactives only a lower limit.

Legend:
[1] = Luminescence Cell-Based Dose Retest to Confirm Inhibitors of Cancer Stem Cells. [Related pubchem assays (depositor defined):AID2717, AID2721]; type: functional; settings: Homo sapiens
[2] = target: T1, Heat shock factor protein 1 (Mus musculus, UniProt P38532); test: enhancement of HSF1-driven luciferase signal – cell-based, NIH3T3, luminescence, dose retest, confirmation (AID 435004); type: functional;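 note: stress induced by proteasome inhibitor MG132 added 30 min after compound; luciferase reporter driven by HSF1 response element in NIH3T3 cells; actives raise luminescence as potentiators of the MG132 stress response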
T1 sequence (P38532 whole entry): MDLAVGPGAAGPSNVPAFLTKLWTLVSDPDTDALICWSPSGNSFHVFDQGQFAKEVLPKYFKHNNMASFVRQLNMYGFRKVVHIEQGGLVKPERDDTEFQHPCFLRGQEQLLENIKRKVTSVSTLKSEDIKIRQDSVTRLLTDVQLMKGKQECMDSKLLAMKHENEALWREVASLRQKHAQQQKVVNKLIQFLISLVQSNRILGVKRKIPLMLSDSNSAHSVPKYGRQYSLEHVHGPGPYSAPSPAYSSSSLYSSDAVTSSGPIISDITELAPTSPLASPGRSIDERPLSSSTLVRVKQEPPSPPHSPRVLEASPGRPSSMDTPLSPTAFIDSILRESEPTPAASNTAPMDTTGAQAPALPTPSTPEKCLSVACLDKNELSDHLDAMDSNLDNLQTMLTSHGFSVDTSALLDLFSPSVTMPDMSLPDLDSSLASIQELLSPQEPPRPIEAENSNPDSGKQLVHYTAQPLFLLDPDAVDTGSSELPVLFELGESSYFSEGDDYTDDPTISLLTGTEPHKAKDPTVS

[3] = target: T2, Replicative DNA helicase DnaB (Mycobacterium tuberculosis, UniProt P9WMR3); test: DnaB intein splicing inhibitors, dose response, biochemical, cell-free fluorescence (AID 449749); type: functional
T2 sequence (P9WMR3 whole entry): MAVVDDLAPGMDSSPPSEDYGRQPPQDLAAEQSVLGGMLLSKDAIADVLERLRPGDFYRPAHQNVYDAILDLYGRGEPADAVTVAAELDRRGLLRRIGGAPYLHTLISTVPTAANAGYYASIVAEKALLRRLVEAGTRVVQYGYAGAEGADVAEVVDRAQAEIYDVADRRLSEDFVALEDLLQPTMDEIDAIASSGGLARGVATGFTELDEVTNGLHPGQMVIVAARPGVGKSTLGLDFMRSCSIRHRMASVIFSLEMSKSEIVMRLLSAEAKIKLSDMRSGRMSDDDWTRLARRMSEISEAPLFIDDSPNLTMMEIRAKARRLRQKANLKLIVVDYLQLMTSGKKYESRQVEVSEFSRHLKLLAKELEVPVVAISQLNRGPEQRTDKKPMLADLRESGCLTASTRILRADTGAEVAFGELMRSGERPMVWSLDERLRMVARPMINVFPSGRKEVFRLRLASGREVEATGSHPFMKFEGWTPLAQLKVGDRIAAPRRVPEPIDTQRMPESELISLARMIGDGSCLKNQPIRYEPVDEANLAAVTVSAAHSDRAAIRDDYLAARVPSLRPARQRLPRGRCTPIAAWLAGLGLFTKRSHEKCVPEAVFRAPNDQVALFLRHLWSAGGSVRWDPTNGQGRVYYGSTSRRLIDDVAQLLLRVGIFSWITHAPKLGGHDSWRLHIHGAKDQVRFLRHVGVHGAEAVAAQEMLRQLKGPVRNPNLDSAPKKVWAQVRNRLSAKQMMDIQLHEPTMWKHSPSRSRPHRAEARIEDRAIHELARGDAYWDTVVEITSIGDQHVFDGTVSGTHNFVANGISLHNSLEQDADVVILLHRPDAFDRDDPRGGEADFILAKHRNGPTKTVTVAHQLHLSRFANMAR

Protein RecA = target: T3, Protein RecA (Mycobacterium tuberculosis, UniProt P9WHJ3); test: Fluorescence Cell-Free Homogeneous Dose Retest to Identify Inhibitors of RecA-Intein Splicing Activity. [Related pubchem assays (depositor defined):AID2097, AID2223, AID489010, AID492950]; type: functional
T3 sequence (P9WHJ3 whole entry): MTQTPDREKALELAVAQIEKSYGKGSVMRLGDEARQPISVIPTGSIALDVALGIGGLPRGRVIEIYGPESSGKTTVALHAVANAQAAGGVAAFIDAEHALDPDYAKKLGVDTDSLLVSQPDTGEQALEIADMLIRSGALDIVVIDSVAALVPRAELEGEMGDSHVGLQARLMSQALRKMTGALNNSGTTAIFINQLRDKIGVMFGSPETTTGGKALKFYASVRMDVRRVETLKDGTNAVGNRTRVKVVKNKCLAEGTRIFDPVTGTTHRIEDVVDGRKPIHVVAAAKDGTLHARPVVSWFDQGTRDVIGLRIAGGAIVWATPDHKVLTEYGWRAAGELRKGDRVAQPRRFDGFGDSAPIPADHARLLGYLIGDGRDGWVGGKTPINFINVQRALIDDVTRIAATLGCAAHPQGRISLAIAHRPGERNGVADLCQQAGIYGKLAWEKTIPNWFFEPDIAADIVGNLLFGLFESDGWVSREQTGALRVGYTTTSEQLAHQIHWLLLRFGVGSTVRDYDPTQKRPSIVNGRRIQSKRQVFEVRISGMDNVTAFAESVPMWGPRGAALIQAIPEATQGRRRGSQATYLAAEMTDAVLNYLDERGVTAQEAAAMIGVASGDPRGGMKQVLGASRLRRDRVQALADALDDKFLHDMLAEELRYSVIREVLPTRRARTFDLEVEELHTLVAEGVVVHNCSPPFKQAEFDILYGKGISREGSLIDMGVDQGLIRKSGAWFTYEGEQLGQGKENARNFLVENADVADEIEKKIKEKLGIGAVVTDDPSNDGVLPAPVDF

[4] = target: T1, Heat shock factor protein 1; test: decrease of HSF1-responsive luciferase luminescence – cell-based, NIH3T3, dose retest, confirmation (AID 2382); type: functional;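 note: NIH3T3 fibroblasts with HSF1-driven luciferase reporter stressed by proteasome inhibitor MG132; luminescence from HSF1-driven luciferase expression after 8 hours of MG132 stress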
[5] = system: Streptococcus sp. 'group A'; test: Streptococcus pyogenes SK(-)GAS viability under kanamycin – luminescence, BacTiterGlo, confirmation, counter-screen for streptokinase expression inhibitor project, dose response (AID 1900); type: functional, organism-based
Streptokinase A = target: T4, Streptokinase A (Streptococcus pyogenes serotype M1, UniProt P10520); test: viability-normalized secreted streptokinase activity reduction – plasminogen activation absorbance, OD405, dose response (AID 1914); type: functional, Streptococcus pyogenes M1 GAS;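 note: secreted streptokinase activity via plasminogen activation per viability signal from cell pellet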
T4 sequence (P10520 whole entry): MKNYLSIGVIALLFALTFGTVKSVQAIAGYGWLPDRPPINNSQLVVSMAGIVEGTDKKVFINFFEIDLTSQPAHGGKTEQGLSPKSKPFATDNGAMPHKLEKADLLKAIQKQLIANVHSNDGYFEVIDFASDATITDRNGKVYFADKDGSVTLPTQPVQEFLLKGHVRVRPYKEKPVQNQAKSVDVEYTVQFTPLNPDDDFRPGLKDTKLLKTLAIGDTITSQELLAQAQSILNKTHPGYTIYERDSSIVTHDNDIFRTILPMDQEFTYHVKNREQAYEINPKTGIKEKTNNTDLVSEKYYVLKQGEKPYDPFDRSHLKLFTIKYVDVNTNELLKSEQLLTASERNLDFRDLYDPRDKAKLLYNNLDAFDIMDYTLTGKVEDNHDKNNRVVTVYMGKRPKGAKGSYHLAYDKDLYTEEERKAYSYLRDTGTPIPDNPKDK

Streptococcus = test: GAS UMAA2166 growth inhibition – luminescence, BacTiterGlo, counter-screen for streptokinase expression inhibitor project, dose response (AID 1915); type: functional, organism-based;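 note: potency for reduction of bacterial viability or growth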
Cytochrome P450 1A2 = target: T5, Cytochrome P450 1A2 (Homo sapiens, UniProt P05177);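 note: PubChem cytochrome P450 panel assay, CYP1A2 panel member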
T5 sequence (P05177 whole entry): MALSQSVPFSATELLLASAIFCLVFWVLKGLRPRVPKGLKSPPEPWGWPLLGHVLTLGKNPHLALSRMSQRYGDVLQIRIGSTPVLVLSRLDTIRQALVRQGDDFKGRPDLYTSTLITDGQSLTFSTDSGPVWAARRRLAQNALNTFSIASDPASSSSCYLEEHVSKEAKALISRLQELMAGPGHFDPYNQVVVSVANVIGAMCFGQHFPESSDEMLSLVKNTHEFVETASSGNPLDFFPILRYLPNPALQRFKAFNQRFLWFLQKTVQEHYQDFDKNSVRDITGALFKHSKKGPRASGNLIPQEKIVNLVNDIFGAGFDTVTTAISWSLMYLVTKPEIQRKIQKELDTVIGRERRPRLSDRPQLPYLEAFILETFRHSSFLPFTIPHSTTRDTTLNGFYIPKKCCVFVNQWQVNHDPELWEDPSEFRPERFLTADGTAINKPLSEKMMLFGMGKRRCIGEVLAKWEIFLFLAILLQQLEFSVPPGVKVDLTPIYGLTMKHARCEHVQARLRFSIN

[6] = Trypanosoma cruzi growth suppression in host cells – NIH3T3 host cells, beta-gal luminescence, confirmation (AID 2044); type: functional, cell-based;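 note: intracellular parasites grown in NIH/3T3 mouse fibroblasts as host cells; luminescent beta-galactosidase reporter signal from transgenic T. cruzi replicating inside host cells; inhibitors lower the luminescence signal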
[7] = NIH3T3 cell viability loss – ATP luminescence, mouse fibroblasts, counter-screen, dose response (AID 2010); type: functional, cell-based;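 note: cells exposed to compound for about 90 hours before reading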
[8] = viability of uninfected HEp-2 cells – cell-based, HTS, cytotoxicity control for RSV inhibitor project, dose response (AID 2410); type: functional; settings: human respiratory syncytial virus
Cytochrome P450 3A4 = Cytochrome P450 3A4 (Homo sapiens, UniProt P08684);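 note: CYP3A4 tested as one member of a cytochrome P450 panel screen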
Sequence of Cytochrome P450 3A4 (P08684 whole entry): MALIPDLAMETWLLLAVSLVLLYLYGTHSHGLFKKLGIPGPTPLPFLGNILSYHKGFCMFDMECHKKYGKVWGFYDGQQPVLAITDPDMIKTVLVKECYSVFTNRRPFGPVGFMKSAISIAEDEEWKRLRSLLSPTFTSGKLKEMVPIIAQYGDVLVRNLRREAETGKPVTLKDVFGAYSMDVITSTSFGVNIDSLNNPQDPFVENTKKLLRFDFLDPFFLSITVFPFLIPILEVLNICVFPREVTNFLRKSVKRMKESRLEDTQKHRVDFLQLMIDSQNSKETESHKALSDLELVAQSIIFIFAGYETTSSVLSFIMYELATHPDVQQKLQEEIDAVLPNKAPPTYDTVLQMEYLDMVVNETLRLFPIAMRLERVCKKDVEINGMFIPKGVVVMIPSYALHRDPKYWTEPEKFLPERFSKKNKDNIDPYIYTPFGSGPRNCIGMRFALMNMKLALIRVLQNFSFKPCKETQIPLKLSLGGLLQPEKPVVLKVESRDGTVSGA

Compound: NC(=O)CC(NC(=O)Cc1cccc2ccccc12)c1ccc(NCc2ccc(F)c(F)c2)c([N+](=O)[O-])c1 (configuration not stated)
- AC50 [1]: 11.2 µM (active)

Compound: O=C(CCc1ccc(S(=O)(=O)N2CCOCC2)cc1)N1CCN(Cc2ccc3c(c2)OCO3)CC1
- EC50 [2]: > 260 µM (inactive)

Compound: O=C(CSC1=NCCS1)Nc1nc(-c2ccccc2)cs1
- AC50 [3]: > 380 µM (inconclusive)
- EC50 (Protein RecA): 7.45 µM (active)

Compound: CCc1c(C)nc2ccc(C)cc2c1O
- EC50 [4]: > 195 µM (not active)

Compound: COc1ccc(NC(=O)c2[nH]cnc2C(=O)N[C@@H](CC(C)C)C(=O)OC(C)(C)C)cc1
- EC50 [5]: 4.08 µM (active)
- EC50 (Streptokinase A): > 150 µM (not active)
- EC50 (Streptococcus): 11.6 µM (active)
- AC50 [1]: 7.16 µM (active)

Compound: Cc1noc(C)c1CSCC(=O)Oc1ccc(N(C)S(=O)(=O)c2ccc(Cl)cc2)cc1
- AC50 [3]: 2.34 µM (active)
- EC50 (Protein RecA): 13.8 µM (active)

Compound: COc1ccc2nc(SCC(=O)NN)cc(C)c2c1
- AC50 [3]: 50.5 µM (active)
- EC50 (Protein RecA): 10.6 µM (active)
- AC50 (Cytochrome P450 1A2): 0.398 µM (inconclusive)

Compound: Cc1ccc(N2C(=O)C(Cl)=C(N3CCOCC3)C2=O)c(C)c1
- AC50 [3]: 16 µM (active)
- EC50 (Protein RecA): 4.19 µM (active)

Compound: COc1ccc(Br)cc1CN1CCCCCCC1
- EC50 [2]: > 260 µM (inactive)

Compound: CCOC(=O)CN1C(=O)S/C(=C/c2cc(C)n(C)c2C)C1=O
- EC50 [4]: > 195 µM (not active)

Compound: CCOC(=O)c1nn(-c2ccc(F)cc2)c(-c2ccccc2)c1C(=O)c1ccccc1
- AC50 [1]: 5.46 µM (active)

Compound: FC(F)(F)c1cnc(Sc2nc3nccc(-c4ccc(Cl)cc4)n3n2)c(Cl)c1
- EC50 [6]: 1.72 µM (active)
- EC50 [7]: > 30 µM (not active)
- EC50 [2]: > 260 µM (inactive)

Compound: COc1ccc(S(=O)(=O)Cc2ccc(C(=O)NCCCN(C)c3ccccc3)o2)cc1
- EC50 [2]: > 260 µM (inactive)

Compound: COc1cc(/C=C/C(=O)c2c(O)ccc3c(C)cc(=O)oc23)ccc1O
- EC50 [2]: 15 µM (active)

Compound: S=C(NCCc1ccccc1)N1CCN(Cc2ccc(Cl)c(Cl)c2)CC1
- EC50 [4]: > 195 µM (not active)

Compound: Oc1ccc(Nc2nc(-c3ccccc3O)nc3ccccc23)cc1
- AC50 [1]: 2.71 µM (active)

Compound: CCOc1ccc(OCc2ccc(C(=O)N3CCc4ccccc4C3)o2)cc1
- CC50 [8]: 23.4 µM (active)
- AC50 (Cytochrome P450 3A4): 39.8 µM (inconclusive)

Compound: COc1ccc(-c2cc(C(=O)NCc3ccco3)c3ccccc3n2)cc1
- EC50 [2]: 158 µM (active)

Compound: Cc1ccc(OCCN2CCN(c3nc(NCc4ccco4)c4ccccc4n3)CC2)cc1
- EC50 [6]: 1.35 µM (active)
- EC50 [7]: 6.18 µM (active)
- AC50 [1]: 4.7 µM (active)

Compound: CCOC(=O)c1cc(C#N)c(NCc2ccccc2)nc1C
- EC50 [4]: > 195 µM (not active)

Compound: CCC1(C)Cc2c(sc3nc(SC)n(Cc4ccccc4)c(=O)c23)CO1 (configuration not stated)
- AC50 [1]: 0.259 µM (active)

Compound: COc1ccc(Cc2nnc(SCC(=O)Nc3ccc(N4CCOCC4)cc3)o2)cc1
- EC50 [2]: > 260 µM (inactive)

Compound: COc1cccc(NP(=O)(Oc2ccc(Cl)cc2)Oc2ccc(Cl)cc2)c1
- EC50 [5]: 6.17 µM (active)
- EC50 (Streptokinase A): 4.68 µM (active)
- EC50 (Streptococcus): 11.2 µM (active)
- AC50 [1]: 3.11 µM (active)

Compound: Cc1ccc(C(=O)NCC(C)NC(=O)c2ccc(C)c([N+](=O)[O-])c2)cc1[N+](=O)[O-] (configuration not stated)
- EC50 [2]: > 260 µM (inactive)

Compound: C=CCc1ccc(OCC(O)CO)c(OC)c1 (configuration not stated)
- EC50 [2]: > 260 µM (inactive)

Compound: Oc1cccnc1Sc1cccc(C(F)(F)F)c1
- EC50 [2]: 165 µM (active)

Compound: CN(/C(=N\S(=O)(=O)c1ccccc1)c1ccccc1)c1ccc(O)cc1
- EC50 [2]: > 260 µM (inactive)

Compound: COc1ccccc1/C=C/C=N/n1c(S)nnc1-c1[nH]nc2c1CCC2
- AC50 [1]: 13.7 µM (active)

Compound: O=C(CCNc1cccc(F)c1)c1cccc([N+](=O)[O-])c1
- AC50 [3]: > 380 µM (inactive)
- EC50 (Protein RecA): > 380 µM (inactive)

Compound: Cc1[nH]n(C(C)(C)C)c(=O)c1Sc1ccccc1
- AC50 [3]: 19.1 µM (active)
- EC50 (Protein RecA): 2.02 µM (active)

Compound: O=C(CNC(=O)C1COc2ccccc2O1)N/N=C\c1ccccc1Cl (configuration not stated)
- AC50 [3]: 189 µM (active)
- EC50 (Protein RecA): > 380 µM (inactive)

Compound: COC(=O)C1C(=O)C2=C(CC1C)N=C(C)/C(=C(/O)OCc1ccc(OC)cc1)C2c1ccc(C)o1 (configuration not stated)
- EC50 [2]: > 260 µM (inactive)

Compound: COc1cc(NC(=O)c2cc([N+](=O)[O-])ccc2NC(=O)CNC2CCCCC2C)cc(OC)c1 (configuration not stated)
- EC50 [2]: > 260 µM (inactive)
